Results reported in patent US20260297081A1, “COMPOUNDS AND METHODS OF TREATING CANCERS” (Cullgen Inc., priority 2023, published 2026).

Experiments:
MCF7 cells = assay: Anti-proliferation (viability) of MCF7 cells (Table 7, FIG. 2B); assay type: cell-based; conditions: Homo sapiens, MCF7, MCF7 cells, 3-6 days, 10-point serial dilution; read-out: GI IC50 in MCF-7
Calu-1 cells = assay: Anti-proliferation (viability) of NSCLC Calu-1 cells, 3 days (Table 7, FIG. 2B); assay type: cell-based; conditions: Homo sapiens, 72 h; Calu-1 cells, 3 days, 10-point serial dilution; read-out: GI IC50 in Calu-1
Method in brief: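 Heterobifunctional compounds are tested in 10-point serial dilutions on Calu-1 (3-day exposure) and T47D (6-day exposure) cells.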

SMILES | IC50 (MCF7 cells) [nM] | IC50 (Calu-1 cells) [nM]
[2H]C([2H])([2H])Nc1ccc(C(=O)Nc2cn(C)c(C3CC3)n2)c(NC2CCN(C(=O)CCN3CCN(c4ccc(Nc5ncc6c(C)c(C(C)=O)c(=O)n(C7CCCC7)c6n5)nc4)CC3)C2)n1 (stereo not drawn) [CPD-273, 2-((1-(3-(4-(6-((6-acetyl-8-cyclopentyl-5-methyl-7-oxo-7,8-dihydropyrido[2,3-d]pyrimidin-2-yl)amino)pyridin-3-yl)piperazin-1-yl)propanoyl)pyrrolidin-3-yl)amino)-N-(2-cyclopropyl-1-methyl-1H-imidazol-4-yl)-6-((methyl-d3)amino)nicotinamide] | > 100 | ≥ 50
CC(=O)c1c(C)c2cnc(Nc3ccc(N4CCN(CCC(=O)N5CCC(Nc6nc(NC(C)C)ccc6C(=O)Nc6cn(C)c(C7CC7)n6)C5)CC4)cn3)nc2n(C2CCCC2)c1=O (stereo not drawn) [CPD-274, 2-((1-(3-(4-(6-((6-acetyl-8-cyclopentyl-5-methyl-7-oxo-7,8-dihydropyrido[2,3-d]pyrimidin-2-yl)amino)pyridin-3-yl)piperazin-1-yl)propanoyl)pyrrolidin-3-yl)amino)-N-(2-cyclopropyl-1-methyl-1H-imidazol-4-yl)-6-(isopropylamino)nicotinamide] | > 100 | 10 to 50
CC(=O)c1c(C)c2cnc(Nc3ccc(N4CCN(CC(=O)N[C@H]5CC[C@H](CNc6nc(NC(C)C)ccc6C(=O)Nc6cn(C)c(C7CC7)n6)CC5)CC4)cn3)nc2n(C2CCCC2)c1=O [CPD-275, 2-(((trans-4-(2-(4-(6-((6-acetyl-8-cyclopentyl-5-methyl-7-oxo-7,8-dihydropyrido[2,3-d]pyrimidin-2-yl)amino)pyridin-3-yl)piperazin-1-yl)acetamido)cyclohexyl)methyl)amino)-N-(2-cyclopropyl-1-methyl-1H-imidazol-4-yl)-6-(isopropylamino)nicotinamide] | > 100 | ≥ 50
[2H]C([2H])([2H])Nc1ccc(C(=O)Nc2cn(C)c(C3CC3)n2)c(NC[C@H]2CC[C@H](NC(=O)CN3CCN(c4ccc(Nc5ncc6c(C)c(C(C)=O)c(=O)n(C7CCCC7)c6n5)nc4)CC3)CC2)n1 [CPD-276, 2-(((trans-4-(2-(4-(6-((6-acetyl-8-cyclopentyl-5-methyl-7-oxo-7,8-dihydropyrido[2,3-d]pyrimidin-2-yl)amino)pyridin-3-yl)piperazin-1-yl)acetamido)cyclohexyl)methyl)amino)-N-(2-cyclopropyl-1-methyl-1H-imidazol-4-yl)-6-((methyl-d3)amino)nicotinamide] | > 100 | ≥ 50
CC(=O)c1c(C)c2cnc(Nc3ccc(N4CCN(CC(=O)NCC5CC(Nc6nc(NC(C)C)ccc6C(=O)Nc6cn(C)c(C7CC7)n6)C5)CC4)cn3)nc2n(C2CCCC2)c1=O (stereo not drawn) [CPD-277, 2-((3-((2-(4-(6-((6-acetyl-8-cyclopentyl-5-methyl-7-oxo-7,8-dihydropyrido[2,3-d]pyrimidin-2-yl)amino)pyridin-3-yl)piperazin-1-yl)acetamido)methyl)cyclobutyl)amino)-N-(2-cyclopropyl-1-methyl-1H-imidazol-4-yl)-6-(isopropylamino)nicotinamide] | > 100 | ≤ 10
[2H]C([2H])([2H])Nc1ccc(C(=O)Nc2cn(C)c(C3CC3)n2)c(NC2CC(CNC(=O)CN3CCN(c4ccc(Nc5ncc6c(C)c(C(C)=O)c(=O)n(C7CCCC7)c6n5)nc4)CC3)C2)n1 (stereo not drawn) [CPD-278, 2-((3-((2-(4-(6-((6-acetyl-8-cyclopentyl-5-methyl-7-oxo-7,8-dihydropyrido[2,3-d]pyrimidin-2-yl)amino)pyridin-3-yl)piperazin-1-yl)acetamido)methyl)cyclobutyl)amino)-N-(2-cyclopropyl-1-methyl-1H-imidazol-4-yl)-6-((methyl-d3)amino)nicotinamide] | > 100 | 10 to 50
CC(=O)c1c(C)c2cnc(Nc3ccc(N4CCN(CC(=O)N5CCC(Nc6nc(NC(C)C)ccc6C(=O)Nc6cn(C)c(C7CC7)n6)CC5)CC4)cn3)nc2n(C2CCCC2)c1=O [CPD-279, 2-((1-(2-(4-(6-((6-acetyl-8-cyclopentyl-5-methyl-7-oxo-7,8-dihydropyrido[2,3-d]pyrimidin-2-yl)amino)pyridin-3-yl)piperazin-1-yl)acetyl)piperidin-4-yl)amino)-N-(2-cyclopropyl-1-methyl-1H-imidazol-4-yl)-6-(isopropylamino)nicotinamide] | > 100 | 10 to 50
CC(=O)c1c(C)c2cnc(Nc3ccc(N4CCN(CC(=O)NC5CC(Nc6nc(NC(C)C)ccc6C(=O)Nc6ccc(N(C)C)nn6)C5)CC4)cn3)nc2n(C2CCCC2)c1=O (stereo not drawn) [CPD-280, 2-((3-(2-(4-(6-((6-acetyl-8-cyclopentyl-5-methyl-7-oxo-7,8-dihydropyrido[2,3-d]pyrimidin-2-yl)amino)pyridin-3-yl)piperazin-1-yl)acetamido)cyclobutyl)amino)-N-(6-(dimethylamino)pyridazin-3-yl)-6-(isopropylamino)nicotinamide] | 50 to 100 | ≤ 10
CNc1ccc(C(=O)Nc2cc(C)on2)c(NC2CC(CNC(=O)CN3CCN(c4ccc(Nc5ncc6c(C)c(C(C)=O)c(=O)n(C7CCCC7)c6n5)nc4)CC3)C2)n1 (stereo not drawn) [CPD-281, 2-((3-((2-(4-(6-((6-acetyl-8-cyclopentyl-5-methyl-7-oxo-7,8-dihydropyrido[2,3-d]pyrimidin-2-yl)amino)pyridin-3-yl)piperazin-1-yl)acetamido)methyl)cyclobutyl)amino)-6-(methylamino)-N-(5-methylisoxazol-3-yl)nicotinamide] | > 100 | 10 to 50
[2H]C([2H])([2H])Nc1ccc(C(=O)Nc2cc(C)on2)c(NC2CC(CNC(=O)CN3CCN(c4ccc(Nc5ncc6c(C)c(C(C)=O)c(=O)n(C7CCCC7)c6n5)nc4)CC3)C2)n1 (stereo not drawn) [CPD-283, 2-((3-((2-(4-(6-((6-acetyl-8-cyclopentyl-5-methyl-7-oxo-7,8-dihydropyrido[2,3-d]pyrimidin-2-yl)amino)pyridin-3-yl)piperazin-1-yl)acetamido)methyl)cyclobutyl)amino)-6-((methyl-d3)amino)-N-(5-methylisoxazol-3-yl)nicotinamide] | 50 to 100 | ≤ 10
CC(=O)c1c(C)c2cnc(Nc3ccc(N4CCN(CC(=O)NC5CCC(Nc6nc(NC(C)C)ccc6C(=O)Nc6cn(C)c(C7CC7)n6)C5)CC4)cn3)nc2n(C2CCCC2)c1=O (stereo not drawn) [CPD-284, 2-((3-(2-(4-(6-((6-acetyl-8-cyclopentyl-5-methyl-7-oxo-7,8-dihydropyrido[2,3-d]pyrimidin-2-yl)amino)pyridin-3-yl)piperazin-1-yl)acetamido)cyclopentyl)amino)-N-(2-cyclopropyl-1-methyl-1H-imidazol-4-yl)-6-(isopropylamino)nicotinamide] | > 100 | ≤ 10
[2H]C([2H])([2H])Nc1ccc(C(=O)Nc2cn(C)c(C3CC3)n2)c(NC2CCC(NC(=O)CN3CCN(c4ccc(Nc5ncc6c(C)c(C(C)=O)c(=O)n(C7CCCC7)c6n5)nc4)CC3)C2)n1 (stereo not drawn) [CPD-285, 2-((3-(2-(4-(6-((6-acetyl-8-cyclopentyl-5-methyl-7-oxo-7,8-dihydropyrido[2,3-d]pyrimidin-2-yl)amino)pyridin-3-yl)piperazin-1-yl)acetamido)cyclopentyl)amino)-N-(2-cyclopropyl-1-methyl-1H-imidazol-4-yl)-6-((methyl-d3)amino)nicotinamide] | > 100 | 10 to 50
